# Where two headings read alike, the source gives them in different places.
# Experiments:
# nocturnal enuresis = conditions: cited from earlier work; for effectiveness in treating nocturnal enuresis: human, in vivo
# [1] = test system: rat urinary bladder strips; conditions: cited from earlier work
# cholinergic receptors [2] = conditions: read-out: IC50 for displacement of tritiated-quinuclidinol benzoate (QNB) binding, cited from earlier work
# rabbit bladder = conditions: cited from earlier work
# [3] = test system: guinea pig bladder muscle strips; conditions: guinea pig bladder muscle strips in vitro; cited from earlier work
# [4] = test system: dog urethra and bladder fragments; assay: NE release in dog urethra and bladder fragments in vitro
# [5] = test system: rabbit urethra and bladder fragments; assay: NE release in rabbit urethra and bladder fragments in vitro
# stress incontinence = conditions: women with stress incontinence; cited from earlier work
# guinea pig bladder = conditions: guinea pig strips in vitro and cystometrogram in vivo; cited from earlier work
# rabbit bladder strips [6] = conditions: cited from earlier work
# dog bladder strips [7] = conditions: cited from earlier work
# human bladder strips = conditions: cited from earlier work
# dog bladder strips [8] = conditions: cited from earlier work; remark: listed apart in the source
# bladder [9] = conditions: female dogs; cited from earlier work
# [10] = test system: muscarinic presynaptic receptors; conditions: rat bladder tissue in vitro; cited from earlier work
# rabbit bladder strips [11] = conditions: in the presence of imipramine; cited from earlier work
# rabbit detrusor strips = rabbit detrusor strips in vitro; cited from earlier work
# frog sciatic nerves = frog sciatic nerves in vitro; cited from earlier work
# dog bladder and urethra = conditions: cited from earlier work
# cat bladder = conditions: in vivo; cited from earlier work
# [12] = test system: dog bladder muscle strips; conditions: cited from earlier work
# urethra = conditions: female dogs; cited from earlier work
# micturition reflex = conditions: cited from earlier work
# [13] = children under 5 years of age; cited from earlier work
# [14] = clinical evaluation as potential treatments for depression, side effects
# cholinergic receptors [15] = assay: 3H-QNB ligand displacement assay (in vitro anti-cholinergic assay); assay type: binding; conditions: 3H-QNB displacement; read-out: anticholinergic IC50
# bladder [16] = assay: bladder function in the cat; assay type: in vivo
# rat urethral tissue = assay: contractile response of rat urethral tissue to NE
# rat bladder tissue = assay: relaxation of rat bladder tissue to NE
# [17] = human, in vivo
structure (smiles),measurement,setting,value
CN(C)CCC=C1c2ccccc2CCc2ccccc21 [amitriptyline],effectiveness in treating nocturnal enuresis,nocturnal enuresis,effective
same,contractile response to electrical stimulation,[1],suppressed the contractile response
CN1[C@@H]2CC[C@H]1C[C@@H](OC(=O)C(CO)c1ccccc1)C2 (some centres unmarked) [atropine],IC50,cholinergic receptors [2],52 µM
same,suppression/inhibition of field stimulated contraction,rabbit bladder; rabbit bladder organ bath,30%
same,suppression/relaxation of bethanechol-induced contraction,rabbit bladder; rabbit bladder organ bath,70%
same,potassium-induced contraction,[3],not effect at high concentration
CNCCCN1c2ccccc2CCc2ccccc21 [desipramine],effectiveness in treating nocturnal enuresis,nocturnal enuresis,effective
same,contractile response to electrical stimulation,[1],suppressed the contractile response
CN(C)CCCN1c2ccccc2CCc2ccccc21 [imipramine],NE release,[4],increase NE release
same,NE release,[5],increase NE release
same,IC50,cholinergic receptors [2]; bladder homogenates,13 µM
same,suppression/inhibition of field stimulated contraction,rabbit bladder; rabbit bladder organ bath,50%
same,suppression/relaxation of bethanechol-induced contraction,rabbit bladder; rabbit bladder organ bath,50%
same,further patients with improvements,nocturnal enuresis; following treatment,15-20%
same,patients with enuresis cured,nocturnal enuresis; following treatment,over 50%
same,restoring continence,stress incontinence,effective as a single therapy
same,activity on bladder,guinea pig bladder,"anticholinergic, antispasmodic, and local anesthetic activity"
same,contractile responses to acetylcholine (ACH),rabbit bladder strips [6],block in vitro contractile responses
same,contractile responses to acetylcholine (ACH),dog bladder strips [7],block in vitro contractile responses
same,contractile responses to acetylcholine (ACH),human bladder strips,block in vitro contractile responses
same,contractile responses to barium chloride,dog bladder strips [8],suppressed contractile responses to barium chloride
same,musculotropic relaxant effect,dog bladder strips [8]; compared with flavoxate,more potent than that of flavoxate
same,cholinergic contractile responses induced by bethanechol,dog bladder strips [8]; dog bladder strips,suppressed cholinergic contractile responses
same,bladder pressure responses to pelvic nerve stimulation,bladder [9],reduced bladder pressure responses
same,effect on muscarinic presynaptic receptors,[10],strong antagonistic effect on muscarinic presynaptic receptors
same,effectiveness of calcium to augment bethanechol-induced contraction,rabbit bladder strips [11],decreased effectiveness of calcium
same,carbamylcholine and barium chloride-induced contractions,rabbit detrusor strips,antagonize
same,impulse conduction,frog sciatic nerves,block the impulse conduction
same,bladder and urethral pressure responses to pelvic nerve stimulation and other stimuli,dog bladder and urethra,reduce dog bladder and urethral pressure responses
same,effects of hypogastric nerve stimulation on bladder relaxation,cat bladder,potentiated the effects of hypogastric nerve stimulation
same,relaxation effects of norepinephrine,[12]; with norepinephrine,enhanced the in vitro relaxation effects of norepinephrine
same,effect on bladder muscle strips alone,[12]; without norepinephrine,no effects alone
same,urethral pressure,urethra,increase urethral pressure
same,supraspinal reflex or myogenic activity of bladder,micturition reflex; acute administration,no effect
same,threshold for activating the bladder-spinal-bladder (vesicovesical) micturition reflex,micturition reflex; acute administration,increased the threshold
same,threshold for supraspinal reflex,micturition reflex; repeated administration,increased threshold for supraspinal reflex
same,potassium-induced contraction,[3],suppression of potassium-induced contraction
same,toxicity in children,[13],particularly toxic and potentially lethal in low dosage
same,noted side effect,[14],urine retention
CCN(CC)CC(=O)Nc1c(C)cccc1C [lidocaine],potassium-induced contraction,[3],not effect at high concentration
CNCCC=C1c2ccccc2CCc2ccccc21 [nortriptyline],effectiveness in treating nocturnal enuresis,nocturnal enuresis,effective
CC(C)[N+](C)(CCOC(=O)C1c2ccccc2Oc2ccccc21)C(C)C [propantheline],IC50,cholinergic receptors [2]; bladder homogenates,29.5 µM
"CNCC[C@@H](Oc1ccccc1C)c1ccccc1 [tomoxetine, (-)-N-methyl-3-(2-methylphenoxy)-3-phenylpropylamine]",IC50,cholinergic receptors [15],21 µM
same,amplitude and frequency of contractions,bladder [16],decreasing the amplitude and frequency of contractions
same,bladder capacity,bladder [16],increasing bladder capacity
same,NE release,[4],increase NE release
same,NE release,[5],increase NE release
same,contractile response of urethral tissue to NE,rat urethral tissue,significantly increase the contractile response
same,relaxation of bladder tissue to NE,rat bladder tissue,augment the relaxation
same,noted side effect,[17],urine retention
same,"side effects such as dry mouth, drowsiness, and dizziness",[17],considerably fewer side effects
COc1ccc(CCN(C)CCCC(C#N)(c2ccc(OC)c(OC)c2)C(C)C)cc1OC (centres unmarked) [verapamil],suppression/inhibition of field stimulated contraction,rabbit bladder,81%
same,suppression/relaxation of bethanechol-induced contraction,"rabbit bladder; rabbit, bladder",85%
